Ends that are not written are not given here.
How the values were obtained:
[1] = background art; cited from earlier work
[2] = tested on: neuronal cell death induced by the gp120 envelope glycoprotein of the AIDS virus; settings: known property of VIP; cited from earlier work
PC12h cells = assay: c-AMP-producing activity: c-AMP secreted by PC12h cells, radioimmunoassay kit; format: cell-based, rat; settings: sample added, 37° C. for 2 hours, c-AMP in culture solution, FIG. 1
Procedure: In the present invention, c-AMP producing activity was assayed by determining the amount of c-AMP secreted out of cells with a radioimmunoassay kit for measuring c-AMP, using subcultured cell PC12h of rat adrenal medulla origin.
Established cells derived from adrenal medullas, PC12h, were cultivated in Dulbecco's modified Eagle's medium containing 10% semi-fetal calf serum at 37° C. A 48-well collagen-treated plate was inoculated with 5×10^4 cells per well, and cultivation was conducted for 7 to 10 days. Then, the culture medium was exchanged for 500 μl of Hank's balanced salt solution, followed by standing at 37° C. for 30 minutes. A sample to be tested dissolved in the same solution was added thereto, and cultivation was conducted at 37° C. for 2 hours. Subsequently, the amount of c-AMP in this culture solution was assayed by using a kit for measuring c-AMP (Amersham Inc.).

Substance: vasoactive intestinal peptide (HSDAVFTDNYTRLRKQMAVKKYLNSILN; ends and bridges not checked; UniProt P01282 125-152, looked up) [VIP, 68% homology with PACAP-27-NH2]
- c-AMP-producing activity [1]: very weak
- protection of neurons from cell death induced by gp120 [2]: capable of protecting neurons from cell death
- c-AMP-producing activity (PC12h cells): weak
